# Data from patent US8425997B2, “Cobalt bearing polymeric compositions” (Umicore, priority 2008, dated 2013).
# Experiment: Aqueous solubility (leaching) of Co, OECD-105 flask method
# Type: physicochemical
# Protocol: Experiments are performed to determine the aqueous solubility of the Co in the invented polymers. These tests are relevant as indicators for the bioavailability of Co.
# […] The leaching tests are conducted according to the OECD-105 standard flask method, as described in the OECD Guideline for the Testing of Chemicals, adopted on 27 Jul. 1995, and in the Official Journal of the European Communities L 383 A, 54-62 (1992).
# The solubility of 3 typical polymers according to the invention is compared to that of 3 commercial products.
substance,measurement,setting,value
Co-acetylacetonate,"Solubility of Co in 0.9% NaCl solution, Co",solvent: 0.9% NaCl,1400 µg/mL
same,"Solubility of Co in water, Co",solvent: water,1600 µg/mL
